Series [1] concerns human pulmonary adenocarcinoma cells. The following applies: in vitro; by increasing the release of arachidonic acid; cited from earlier work.
For another series, the system named is lung tumors. The following applies: 2.5 mg/100 g s.c. three times weekly for 20 weeks; within 52 weeks after start of injections; cited from earlier work.
Series [2] concerns members of the MAPK and GPCR pathways. As to the kind of experiment: ELISA of venous blood for MAPK and GPCR pathway members in NNK-treated hamsters. The series is classed as in vivo, Syrian Golden Hamsters. As to conditions: blood one week after NNK 2.5 mg/100 g s.c. three times weekly for 10 weeks. The method, then: Syrian Golden Hamsters are injected subcutaneously with the tobacco-specific carcinogenic nitrosamine 4-(methylnitrosamino)-1-(3-pyridyl)-1-butanone (NNK) at a dosage of 2.5 mg/100 g bodyweight three times weekly for 10 weeks. […] Control hamsters are untreated. One week after the final NNK injection, approximately 250 microliters of venous blood is collected from the hamsters.
Antibodies that bind to phosphorylated or unphosphorylated members of the MAPK and GPCR pathways, including Raf, Ras, MEK, ERK, adenylate cyclase, cAMP, PKA, CREB, and PKC are purchased from commercial sources, including EMD Biosciences (San Diego, Calif.) (Raf, ERK), BD Biosciences Pharmingen (San Diego, Calif.) (Raf), Cell Signaling Technology (Beverly, Mass.) (Ras), Abgent (San Diego, Calif.) ([…]), GenWay Biotech Inc. (San Diego, Calif.) (adenylate cyclase), Abcam, Inc. (Cambridge, Mass.) (cAMP, PKA, PKC, Raf), and Upstate (Charlottesville, Va.) (CREB).
Paired antibodies for each of the above member of the MAPK and GPCR pathways are utilized as coating antibody and detection antibody in formulating an ELISA (Enzyme-Linked Immunosorbent Assay) for each of the members. […]
Briefly, a first antibody that binds to a member of the MAPK or GPCR pathway is bound to the wells on a microtiter plate. […] Then a stop solution is added to the wells and the color intensity of each well is measured using an ELISA plate reader.
On the technique in general: ELISA stands for enzyme-linked immunosorbent assay.

For series [3], the system named is pulmonary adenocarcinomas. The following applies: animal model; cited from earlier work.

As for `CN(CCCC(=O)c1cccnc1)N=O` [NNK, 4-(methylnitrosamino)-1-(3-pyridyl)-1-butanone], the “proliferation of human pulmonary adenocarcinoma cells” value in series [1] is “stimulate the proliferation”. In the series on lung tumors, the lung tumors developed result was “about 10 lung tumors/hamster”. For the same compound, in series [2], the “ELISA color intensity versus control hamsters” value is recorded as “significantly higher”. Moreover, the “induction of pulmonary adenocarcinomas” value in series [3] was “reproducibly induced pulmonary adenocarcinomas”.

As to `CC(C)NCC(O)c1ccc(O)c(O)c1` (centres unmarked) [isoproterenol], the “proliferation of human pulmonary adenocarcinoma cells” value in series [1] was “stimulate the proliferation”.

Source of the values: patent US20060233705A1, “Diagnosis by determination of hyperactivity or increased expression of members of cell signaling pathways” (priority 2005, published 2006).
